Experimental data from patent US20020082273A1, “Agents for use in the treatment of alzheimer's disease” (priority 1998, published 2002).
Values joined by “and” are separate entries in the source; they are usually repeats but may differ in a detail not shown here. Identical values can stand only once. “Also recorded” adds a separate entry of the source. Like-named read-outs stand apart in the source and are kept apart here.

What was measured:
Alzheimer's disease = settings: clinical administration; cited from earlier work
[1] = H2O2 assay, production by Aβ peptides; format: biochemical; settings: 1 μM Fe^3+, ambient O2, PBS pH 7.4, 1 hour 37° C.
Experimental: Polypeptides (10 μM) or Vitamin C (10 μM), Fe^3+ or Cu^2+ (1 μM) and a H2O2 trapping agent-Tris(2-Carboxyethyl)Phosphine Hydrochloride (TCEP, Pierce, 50 μM)-were co-incubated in PBS buffer (300 μL), pH 7.4, for 1 hour at 37° C. Under identical conditions, catalase (Sigma, 100 U/mL) was substituted for the polypeptides, to serve as a control signal representing 0 μM H2O2. Following incubation, the unreacted TCEP was detected by 5,5-Dithio-bis(2-Nitrobenzoic acid) (DTNB, Sigma, 50 KLM) which generates 2 moles of the coloured product.

[2] = Metal reduction assay, Fe^3+ to Fe^2+; format: biochemical; settings: 10 μM Fe^3+, PBS pH 7.4, 1 hr 37° C.
Experimental: (§1) The metal reduction assay was performed using a 96-well microtiter plate (Costar) based upon a modification of established protocols (Landers, J. W., et al., Amer. Clin. Path. 29:590 (1958); Landers, J. W., et al., Clinica Chimica Acta 3:329 (1958)). Polypeptides (10 μM) or Vitamin C (100 μM), metal ions (10 μM, Fe(NO3)3 or Cu(NO3)2), and reduced metal ion indicators, bathophenanthrolinedisulfonic acid (BP, for Fe^2+, Sigma, 200 μM) or bathocuproinedisulfonic acid (BC, for Cu^+, Sigma, 200 μM), were coincubated in phosphate buffered saline (PBS), pH 7.4, for 1 hr at 37° C. The metal ion solutions were prepared by direct dilution in the buffer from their aqueous stocks purchased from National Institute of Standards and Technology (NIST). Absorbances were then measured at 536 mn (Fe^2+-BP complex) and 483 nm (Cu^+-BC complex), respectively, using a 96-well plate reader (SPECTRAmax 250, Molecular Devices, CA). In control samples, both metal ion and indicator were present to determine the background buffer signal. As a further control, both metal ion and peptide were present in the absence of indicator to estimate the contribution of light scattering due to turbidity to the absorbance reading at these wavelengths. The net absorbances (ΔA) at 536 nm or 483 nm were obtained by deducting the absorbances from these controls from the absorbances generated by the peptide and metal in the presence of the respective indicator.
The concentrations of reduced metal ions (Fe^2+ or Cu^+) were quantified based on the formula: Fe^2+ or Cu^+ (˜M)=A*10^6/(L*M), where L is the measured equivalent vertical pathlength for a well of 300 μL volume as described in the instrument's specifications manual (0.856 cm for Fe^2+; 1.049 cm for Cu^+); M is the known molecular absorbance (M^−1 cm^−1) which is 7124 (for Fe^2+-BP complex) or 2762 (for Cu^+-BC complex).

[3] = Cu^2+-induced SDS-resistant polymerization of Aβ peptides, western blot image analysis; format: biochemical, human
Experimental: Following incubation (37° C.), aliquots of each reaction (2 ng peptide) were collected at 0 d, 1 d, 3 d and 5 d and western blotted using anti-Aβ monoclonal antibody 8E10 (FIG. 9). Migration of the molecular size markers are indicated (kDa). […] It should be noted that other means of visualizing and/or determining the presence or absence of polymerization other than western blot analysis may be used. Such other means include but are not limited to density sedimentation by centrifugation of the samples.
The generation of SDS-resistant Aβ polymers by metal ions was tested by incubating Cu^2+ (30 μM) or Zn^2+ (30 μM) at pH 6.6, 7.4 and 9.0 with Aβ1-40.
(0-30 μM) at pH 7.4 and 6.6 and the samples analyzed by Western blot and the signal quantitated using the Fluoro-S Image Analysis System (Bio-Rad, Hercules, Calif.) as previously described.

[4] = Metal reduction assay, Cu^2+ to Cu^+; format: biochemical; settings: 10 μM Cu^2+, PBS pH 7.4, 1 hr 37° C.
Experimental: Aβ (10 μM in PBS, pH 7.4 or 6.8, as shown) was incubated for 30 minutes (37° C.) in the presence of Cu^2+10 μM ±Zn^2+ 10 μM). […] levels (n=3, ±SD) were assayed against a standard curve.
as §1, with “Polypeptides” for “The metal reduction assay was performed using a 96-well microtiter plate (Costar) based upon a modification of established protocols (Landers, J. W., et al., Amer. Clin. Path. 29:590 (1958); Landers, J. W., et al., Clinica Chimica Acta 3:329 (1958)). Polypeptides”, “Absorbances were then measured at 536 mn (Fe^2+-BP complex) and 483 nm (Cu^+-BC complex), respectively, using a 96-well plate reader (SPECTRAmax 250, Molecular Devices, CA).” left out

TBARS assay of OH. = format: biochemical; settings: 10 μM peptide, 1 μM Fe^3+ or Cu^2+
Experimental: All data points are means ±SD, n=3.
The Thiobarbituric Acid-Reactive Substance (TBARS) assay for incubation mixtures with Fe^3+ or Cu^2+ was performed in a 96-well microtiter format modified from established protocols (Gutteridge et al. Biochim. Biophys. Acta 759: 38-41 (1983)). Aβ peptide species (10 μM) or Vitamin C (100 μM), were incubated with Fe^3+ or Cu^2+ (1 μM) and deoxyribose (7.5 mM, Sigma) in PBS, pH 7.4. Following incubation (37° C., 1 hour), glacial (17 M) acetic acid and 2-thiobarburic acid (1%, w/v in 0.05 M NaOH, Sigma) were added and heated (100° C., 10 min). The final mixtures were placed on ice for 1-3 minutes before absorbances at 532 nm were measured. The net absorbance change for each sample were obtained by deducting the absorbance from a control sample consisting of identical chemical components except for the Vitamin C or Aβ peptides.

[5] = in vivo, cited from earlier work
Aβ1-42 [6] = molecular target: T1, Aβ1-42 (Homo sapiens, UniProt P05067); test: Effect of chelators on metal reduction by Aβ1-42; format: biochemical; settings: chelator 200 μM, Fe^3+ 10 μM, ambient oxygenation
T1 sequence (P05067 672-713 limits assumed): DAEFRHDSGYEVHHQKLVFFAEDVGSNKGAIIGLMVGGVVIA

Aβ1-42 [7] = molecular target: T1, Aβ1-42; test: Effect of metal chelators on H2O2 production from Aβ1-42; format: biochemical; settings: 1 μM Fe^3+; chelator 200 μM
[8] = oral dose of 200 mg/kg, dogs; cited from earlier work
[9] = with PBS at 1:1 mixture; assumption; cited from earlier work
[10] = oral dose of 500 mg/kg, monkeys; cited from earlier work
[11] = Dissolving clioquinol: n-decane / PBS partition; format: physicochemical
Experimental: Next, the phases were allowed to separate. The lower phase (PBS) was collected and filtered to remove the residue which had formed at the phase interface upon extraction with the organic solvent. The concentration of clioquinol in the PBS was determined to be 800 nanomolar. This number was arrived at based on two assumptions: […]

[12] = oral dose of 200 mg/kg, rats; cited from earlier work
[13] = cited from earlier work
[14] = Clioquinol in humans: expected plasma levels and side effect; format: in vivo
Aβ1-40 aggregates = molecular target: T2, Aβ1-40 aggregates (Homo sapiens, UniProt P05067); test: Resolubilization of in vitro metal- or pH-induced Aβ aggregates on filter; format: biochemical; settings: chelator 2 μM in TBS
T2 construct: formed in vitro by the action of Cu^2+ or Zn^2+ upon Aβ1-40 was examined; purchased W. M. Keck Foundation Biotechnology Resource Laboratory (Yale University); host or cells: chemical synthesis
T2 sequence (P05067 672-711 limits assumed): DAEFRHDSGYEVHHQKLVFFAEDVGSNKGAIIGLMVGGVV
Experimental: Aggregates were transferred to a 0.2 μ nylon membrane by filtration. […] The membrane was fixed, probed with the anti-Aβ monoclonal antibody 6E10, and developed for exposure to ECL-film. […] Values are expressed as a percentage of Aβ signal after washing with TBS alone.
Aβ (10 ng/well in buffered saline) aggregation was induced by addition of metals (5 μM) or acidic conditions (pH 5.5). Aggregates were transferred to a 0.2 μ nylon membrane by filtration. […] The membrane was then fixed, probed with anti-Aβ monoclonal antibody 6E10 and developed for exposure to ECL-film. […] Values are expressed as a % of Aβ signal remaining on the filter after washing with TBS alone.

[15] = system: Aβ deposits of AD-affected brain; test: Extraction (solubilization) of Aβ from post-mortem AD brain tissue homogenates, western blot densitometry; format: biochemical, human
[16] = sustained treatment, dose as low as 10 mg/kg/day; cited from earlier work
[17] = cited from earlier work; remark: listed apart in the source
brain-derived Aβ = test: Effect of added metals on solubility of brain-derived Aβ; format: biochemical, human; settings: 2 mM in PBS
Experimental: Aβ in the high speed supernatant was visualized as described above.
The homogenates were spun at 100,000× g for 30 min and the supernatant discarded. […] Aβ in the soluble fraction was visualized as described above.

In the case of vitamin E, the “effect on progression of AD” value (Alzheimer's disease) is listed as “delay the progression of clinical AD”.
With “Aβ1-42: synthetic human Aβ peptide, residues 1-42” the H2O2 generated [1] was 10 µM, the “reduction of available Fe^3+” value [2] was 50% and the “SDS-resistant polymers: Monomer” value ([3]; pH 6.6, [Cu^2+] 0) was 61.0. For the same compound, the “SDS-resistant polymers: Pentamer” value ([3]; pH 6.6, [Cu^2+] 0) was 3.8, the “SDS-resistant polymers: Tetramer” value ([3]; pH 6.6, [Cu^2+] 0) was 8.6 and the “SDS-resistant polymers: Trimer” value ([3]; pH 6.6, [Cu^2+] 0) was 27.3. For the same compound, the “SDS-resistant polymers: Monomer” value ([3]; pH 6.6, [Cu^2+] 0.5) was 52.1, the “SDS-resistant polymers: Tetramer” value ([3]; pH 6.6, [Cu^2+] 0.5) was 12.0 and the “SDS-resistant polymers: Trimer” value ([3]; pH 6.6, [Cu^2+] 0.5) was 33.8. For the same compound, the “SDS-resistant polymers: Monomer” value ([3]; pH 6.6, [Cu^2+] 5) was 59.6, the “SDS-resistant polymers: Tetramer” value ([3]; pH 6.6, [Cu^2+] 5) was 7.1 and the “SDS-resistant polymers: Monomer” value ([3]; pH 6.6, [Cu^2+] 10) was 52.3. The “SDS-resistant polymers: Pentamer” value ([3]; pH 6.6, [Cu^2+] 10) was 2.2, the “SDS-resistant polymers: Tetramer” value ([3]; pH 6.6, [Cu^2+] 10) was 13.6 and the “SDS-resistant polymers: Monomer” value ([3]; pH 7.4, [Cu^2+] 0) was 76.61. The “SDS-resistant polymers: Pentamer” value ([3]; pH 7.4, [Cu^2+] 0) was 1.9, the “SDS-resistant polymers: Tetramer” value ([3]; pH 7.4, [Cu^2+] 0) was 5.5 and the “SDS-resistant polymers: Trimer” value ([3]; pH 7.4, [Cu^2+] 0) was 16.0. The “SDS-resistant polymers: Monomer” value ([3]; pH 7.4, [Cu^2+] 0.5) was 70.7, the “SDS-resistant polymers: Pentamer” value ([3]; pH 7.4, [Cu^2+] 0.5) was 2.5 and the “SDS-resistant polymers: Tetramer” value ([3]; pH 7.4, [Cu^2+] 0.5) was 6.2. The “SDS-resistant polymers: Trimer” value ([3]; pH 7.4, [Cu^2+] 0.5) was 20.5, the “SDS-resistant polymers: Monomer” value ([3]; pH 7.4, [Cu^2+] 1) was 64.9 and the “SDS-resistant polymers: Pentamer” value ([3]; pH 7.4, [Cu^2+] 1) was 4.0. The “SDS-resistant polymers: Tetramer” value ([3]; pH 7.4, [Cu^2+] 1) was 7.4, the “SDS-resistant polymers: Trimer” value ([3]; pH 7.4, [Cu^2+] 1) was 23.6 and the “SDS-resistant polymers: Monomer” value ([3]; pH 7.4, [Cu^2+] 5) was 56.1. The “SDS-resistant polymers: Pentamer” value ([3]; pH 7.4, [Cu^2+] 5) was 4.1, the “SDS-resistant polymers: Tetramer” value ([3]; pH 7.4, [Cu^2+] 5) was 8.7 and the “SDS-resistant polymers: Monomer” value ([3]; pH 7.4, [Cu^2+] 10) was 55.1. For the same compound, the “SDS-resistant polymers: Pentamer” value ([3]; pH 7.4, [Cu^2+] 10) was 4.3, the “SDS-resistant polymers: Tetramer” value ([3]; pH 7.4, [Cu^2+] 10) was 10.3 and the “SDS-resistant polymers: Monomer” value ([3]; pH 7.4, [Cu^2+] 30) was 57.1. For the same compound, the “SDS-resistant polymers: Pentamer” value ([3]; pH 7.4, [Cu^2+] 30) was 4.2 and the “SDS-resistant polymers: Tetramer” value ([3]; pH 7.4, [Cu^2+] 30) was 8.3.
With “rat Aβ1-40: rat Aβ with substitutions R5→G, Y10→F, H13→R compared to human Aβ (DAEFGHDSGFEVRHQKLVFFAEDVGSNKGAIIGLMVGGVV; Amyloid-beta protein 40; UniProt P08592 672-711, looked up)” the “reduction of available Cu^2+” value [4] was “reduced no Cu^2+”, the “reduction of available Fe^3+” value [2] was “did not significantly facilitate the reduction of Fe^3+” and the “OH. generation (TBARS)” value (TBARS assay of OH.) was “did not generate OH”.
For `CC(=O)N(O)CCCCCNC(=O)CCC(=O)N(O)CCCCCNC(=O)CCC(=O)N(O)CCCCCN` [DFO], the “brain / blood-brain barrier penetration” value [5] is given as “does not easily penetrate the blood-brain barrier”, the “effect on progression of AD” value (Alzheimer's disease) is given as “effective in preventing the progression of AD” and the “effect on production of Fe^2+ by Aβ1-42” value (Aβ1-42 [6]) is given as “nearly halved”. The “effect on H2O2 formation by Aβ1-42” value (Aβ1-42 [7]) was “had no effect on H2O2 formation”.
For `Oc1c(I)cc(Cl)c2cccnc12` [clioquinol, 5-chloro-7-iodo-8-hydroxyquinoline], the “brain / blood-brain barrier penetration” value [5] is given as “freely permeable into the brain”, the “brain / blood-brain barrier penetration” value ([5]; listed as Clioquinol) is given as “crosses the blood brain barrier” and the plasma levels [8] is given as 10 to 30 µM. The partitioning coefficient [9] was 1/1750, the plasma levels [10] was 20 to 70 µM and the “proportion dissolved in n-decane” value ([11]; 5.3 grams in 200 milliliter of n-decane) was 2%. The “concentration in PBS after partition from n-decane” value ([11]; PBS, pH 7.4, based on two assumptions) was 0.8 µM, the plasma levels [12] was 5 µM and the “removal of a bolus dose from the brain” value ([13]; in vivo) was “almost completely removed from the brain within three hours”. The safety ([13]; many mammalian species, including rat and mouse) was “appears to be safe”, the blood levels ([13]; within one hour of ingestion, rats and mice) was 1 to 10 µM and the peak plasma levels ([14]; 100 mg, three or four times a day) was “about 0.1 μM”. The expected plasma level ([14]; humans, within 30 minutes of ingesting 10 mg/kg body weight) was 0.5 µM, the “Cu^2+-induced Aβ precipitate resolubilized” value (Aβ1-40 aggregates) was 85% and the “Zn^2+-induced Aβ precipitate resolubilized” value (Aβ1-40 aggregates) was 50%. The “pH 5.5-induced Aβ precipitate resolubilized” value (Aβ1-40 aggregates) was 10%, the “% of total Aβ extracted” value [15] was 1.85% and 4.5% and 3.4% and the “% of total Aβ extracted, + PBS” value [15] was 0.11% and 2.7% and 1.1%. The “Aβ recovered in the soluble phase compared to PBS alone” value [15] was “doubling the recovery of Aβ; also recorded: more than twice”, the “increase in solubilization of Aβ relative to PBS alone” value [15] was 2.5 fold and the neurological side effect [16] was “subacute myclo-optic neuritis”. The excretion half life ([17]; in vivo) was 1 to 3 h and the “time to peak plasma levels” value ([17]; oral ingestion) was at most 30 min.
For `[Mg]` [magnesium], the “resolubilization of Aβ in tissue depleted of metals by EGTA” value (brain-derived Aβ) was “led to resolubilization of the precipitated Aβ”.
